Consider 8 molecules from article PMC12400309 (RSC Advances, 2025).

Series [1] relates to human gastric adenocarcinoma (SCM-1). Briefly: MTT cytotoxicity assay, SCM-1. It is filed as cell-based. The conditions noted are these: read-out: IC50 SCM-1. In general terms: Tetrazolium assays rely on reduction of a dye to a coloured formazan, in cell work by metabolically active cells.
Series [2] relates to human oral squamous cell carcinoma (SCC2095). Put plainly: MTT cytotoxicity assay, SCC2095. It is filed as cell-based. The conditions noted are these: read-out: IC50 SCC2095.
In series [3] the test system is human breast adenocarcinoma (MCF-7). Put plainly: MTT cytotoxicity assay, MCF-7. Type of series: cell-based. The conditions noted are these: MCF7, read-out: IC50 MCF-7.
The test system of series [4] is human leukemia MOLT-4 cell line. The conditions noted are these: cited from earlier work.
Series [5] has as its system colchicine resistant KB-C2 cell lines. The conditions noted are these: cited from earlier work.

By IC50 is commonly meant the midpoint of a concentration-inhibition curve. As for `CC[C@H](CC[C@@H](C)[C@H]1CC[C@H]2[C@@H]3[C@H](O)C=C4C[C@@H](O)CC[C@]4(C)[C@H]3CC[C@]12C)C(C)C` [Compound 8, (3β,7α)-stigmast-5-ene-3,7-diol], the IC50 in series [1], in series [2] and in series [3] was more than 30 µM throughout.
Take `COc1cc(C=O)cc(OC)c1O` [Compound 14, 4-hydroxy-3,5-dimethoxybenzaldehyde]: the 50% inhibitory concentration (IC50) in series [1], in series [2] and in series [3] was more than 10 µM in each case.
With `COc1cc([C@@H]2c3cc4c(cc3[C@@H](O[C@@H]3O[C@@H]5CO[C@@H](C)O[C@H]5[C@H](O)[C@H]3O)[C@H]3COC(=O)[C@H]23)OCO4)cc(OC)c1O` [Etoposide], the half-inhibitory concentration (IC50) in series [2] was 2.5 ± 0.2 µM.
On to `CC(=O)O[C@H]1C(=O)[C@@]2(C)[C@H]([C@H](OC(=O)c3ccccc3)[C@]3(O)C[C@H](OC(=O)[C@H](O)[C@@H](NC(=O)c4ccccc4)c4ccccc4)C(C)=C1C3(C)C)[C@]1(OC(C)=O)CO[C@@H]1C[C@@H]2O` [Paclitaxel], for which, in series [1], the IC50 was 0.07 ± 0.002 µM.
On to `CC(=O)OC[C@H]1O[C@@H](O[C@@H]2C[C@H]3C(C)(C)[C@H](OC(C)=O)CC[C@]3(C)[C@H]3CC[C@]45C[C@]4(CC[C@H]5[C@@H](C)C[C@@H](O)[C@H](O)C(C)(C)O)[C@@]32C)[C@H](O)[C@@H](O)[C@@H]1O` [cumingianoside A], for which the “ED50 cytotoxicity MOLT-4” value in series [4] is less than 6.25 ng/mL.
As to `COC(C)(C)[C@@H](O)[C@H](O)C[C@H](C)[C@@H]1CC[C@]23C[C@]12CC[C@@H]1[C@@]2(C)CC[C@@H](OC(C)=O)C(C)(C)[C@@H]2C[C@@H](O[C@@H]2O[C@H](COC(C)=O)[C@@H](O)[C@H](O)[C@H]2O)[C@]13C` [cumingianoside C], the “ED50 cytotoxicity MOLT-4” value in series [4] was less than 4.5 ng/mL.
On to cumingianol B, for which, in series [5], the “cytotoxicity against multi-drug resistant KB-C2 cancer cells (in words)” value was “enhanced cytotoxicity”.
Take dycusin A: in series [5], the “cytotoxicity against multi-drug resistant KB-C2 cancer cells (in words)” value is reported as “enhanced cytotoxicity”.
